Reference: patent US20170008888A1 (KYORIN PHARMACEUTICAL CO., LTD., priority 2014, published 2017)

Columns and labels:
Type in all cases: binding
[1] = biological target: T1, AurA (Homo sapiens, UniProt O14965); assay: Probe-based (AX9989) kinase profiling in Jurkat lysate: AurA; conditions: read-out: Kinase inhibition % at indicated screening concentration: AurA; for inhibition at 1 µM: screening concentration 1.0 μM; for inhibition at 0.1 µM: screening concentration 0.1 μM
T1 construct: screened for activity against several kinases in Jurkat cells; endogenous in cells; host or cells: Jurkat cell lysate
T1 sequence (O14965 1-403): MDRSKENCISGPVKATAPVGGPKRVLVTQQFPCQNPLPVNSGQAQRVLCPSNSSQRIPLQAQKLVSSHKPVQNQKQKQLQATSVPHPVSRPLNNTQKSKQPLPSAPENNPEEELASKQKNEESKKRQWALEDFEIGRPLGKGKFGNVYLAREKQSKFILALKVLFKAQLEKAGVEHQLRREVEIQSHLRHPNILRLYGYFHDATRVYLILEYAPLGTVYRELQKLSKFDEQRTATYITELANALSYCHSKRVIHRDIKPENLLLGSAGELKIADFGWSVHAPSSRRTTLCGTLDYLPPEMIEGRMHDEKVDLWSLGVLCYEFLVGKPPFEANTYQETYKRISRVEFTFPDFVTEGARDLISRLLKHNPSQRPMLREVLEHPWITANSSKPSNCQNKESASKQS
Method in brief: (§1)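 Gel-filtered Jurkat lysate (HEPES pH 7.5, 20 mM MnCl2, 5 mg/ml) was pre-incubated 15 min with compound at room temperature, then labelled with 5 μM acyl-phosphate ATP probe AX9989. Tryptic probe-labelled active-site peptides were streptavidin-captured and quantified by LC/MS. Percent inhibition reflected the decrease in labelled-peptide intensity versus no compound.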

[2] = biological target: T2, TAO2 (Homo sapiens, UniProt Q9UL54); assay: Probe-based (AX9989) kinase profiling in Jurkat lysate: TAO2; conditions: read-out: Kinase inhibition % at indicated screening concentration: TAO2; for inhibition at 1 µM: screening concentration 1.0 μM; for inhibition at 0.1 µM: screening concentration 0.1 μM
T2 construct: screened for activity against several kinases in Jurkat cells; endogenous in cells; host or cells: Jurkat cell lysate
T2 sequence (Q9UL54 1-1235): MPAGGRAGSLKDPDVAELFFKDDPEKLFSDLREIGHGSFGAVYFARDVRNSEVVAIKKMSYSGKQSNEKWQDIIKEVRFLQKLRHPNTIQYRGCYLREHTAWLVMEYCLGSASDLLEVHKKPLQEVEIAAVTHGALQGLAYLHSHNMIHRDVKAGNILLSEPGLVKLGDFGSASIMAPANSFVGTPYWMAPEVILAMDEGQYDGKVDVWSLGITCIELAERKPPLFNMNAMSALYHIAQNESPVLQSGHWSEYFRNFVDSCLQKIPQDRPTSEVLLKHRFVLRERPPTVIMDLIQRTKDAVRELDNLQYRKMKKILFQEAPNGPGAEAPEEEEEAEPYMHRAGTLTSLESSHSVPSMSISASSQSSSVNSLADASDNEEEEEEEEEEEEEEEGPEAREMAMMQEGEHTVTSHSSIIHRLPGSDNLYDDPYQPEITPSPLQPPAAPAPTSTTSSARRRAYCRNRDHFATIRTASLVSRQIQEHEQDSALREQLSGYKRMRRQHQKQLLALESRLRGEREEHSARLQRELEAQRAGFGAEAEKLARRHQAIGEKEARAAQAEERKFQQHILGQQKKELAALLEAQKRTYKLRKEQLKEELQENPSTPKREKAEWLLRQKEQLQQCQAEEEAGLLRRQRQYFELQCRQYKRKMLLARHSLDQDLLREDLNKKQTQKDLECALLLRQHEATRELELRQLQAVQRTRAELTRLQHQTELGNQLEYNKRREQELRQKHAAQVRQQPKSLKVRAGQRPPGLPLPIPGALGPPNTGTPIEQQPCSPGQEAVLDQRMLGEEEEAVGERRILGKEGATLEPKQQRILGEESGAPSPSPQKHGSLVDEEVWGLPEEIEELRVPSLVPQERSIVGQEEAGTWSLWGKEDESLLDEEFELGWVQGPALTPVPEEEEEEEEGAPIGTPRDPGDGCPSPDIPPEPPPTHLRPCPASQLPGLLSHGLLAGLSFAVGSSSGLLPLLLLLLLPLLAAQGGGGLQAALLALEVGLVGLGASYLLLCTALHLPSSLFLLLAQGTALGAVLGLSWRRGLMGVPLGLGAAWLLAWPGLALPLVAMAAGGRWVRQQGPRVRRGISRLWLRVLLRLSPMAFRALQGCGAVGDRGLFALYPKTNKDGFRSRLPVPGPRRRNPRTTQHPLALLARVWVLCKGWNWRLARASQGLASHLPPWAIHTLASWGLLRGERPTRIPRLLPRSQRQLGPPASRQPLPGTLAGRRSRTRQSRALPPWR
Method in brief: as §1

[3] = system: AurB or AurC; assay: Probe-based (AX9989) kinase profiling in Jurkat lysate: AurB or AurC
Method in brief: as §1

Row | inhibition at 1 µM [1] | inhibition at 1 µM [2] | Kinase inhibition % at indicated screening concentration: AurB or AurC ([3]; screening concentration 1.0 μM) | inhibition at 0.1 µM [1] | inhibition at 0.1 µM [2] | Kinase inhibition % at indicated screening concentration: AurB or AurC ([3]; screening concentration 0.1 μM) | SMILES
1 | ≤ 35% | ≤ 35% | E (E is ≦35%) |  |  |  | CCOc1cc(C(=O)N2CCN(CCOCCO)CC2)ccc1Nc1cc2c(cn1)N(C)C(=O)c1ccccc1N2C [Compound 6]
2 | ≤ 35% | ≤ 35% | E (E is ≦35%) |  |  |  | CCOc1cc(C(=O)N2CCCN(C)CC2)ccc1Nc1cc2c(cn1)N(C)C(=O)c1ccccc1N2C [Compound 8]
3 |  |  |  | ≤ 35% | ≤ 35% | E (E is ≦35%) | CCOc1cc(C(=O)N2CCN(CC3CC3)CC2)ccc1Nc1cc2c(cn1)N(C)C(=O)c1ccccc1N2C [Compound 10]
4 | ≤ 35% | ≤ 35% | E (E is ≦35%) |  |  |  | CCOc1cc(C(=O)N2CCC(N3CCCC3)CC2)ccc1Nc1cc2c(cn1)N(C)C(=O)c1ccccc1N2C [Compound 46, 3-(2-Ethoxy-4-(4-(pyrrolidin-1-yl)piperidine-1-carbonyl)phenylamino)-5,11-dimethyl-5H-benzo[e]pyrido[3,4-b][1,4]diazepin-10(11H)-one]
5 |  |  |  | ≤ 35% | ≤ 35% | E (E is ≦35%) | Cc1cc(CN2CC[C@@H](N3CCCC3)C2)ccc1Nc1cc2c(cn1)N(C)C(=O)c1ccccc1N2C [Compound 49]
6 |  |  |  | ≤ 35% | ≤ 35% | E (E is ≦35%) | CCOc1cc(C(N)=O)ccc1Nc1cc2c(cn1)N(C)C(=O)c1ccccc1N2C [Compound 51]
7 | ≤ 35% | ≤ 35% | E (E is ≦35%) |  |  |  | CCOc1cc(C(=O)N2CCC(O)CC2)ccc1Nc1cc2c(cn1)N(C)C(=O)c1ccccc1N2C [Compound 52]
8 | ≤ 35% | ≤ 35% | E (E is ≦35%) |  |  |  | CN1C(=O)c2occc2N(C)c2cc(N[C@H]3CC[C@H](N)CC3)ncc21 [Compound 53]
9 | ≤ 35% | ≤ 35% | E (E is ≦35%) |  |  |  | CCOc1cc(C(=O)NCCCN(CC)CC)ccc1Nc1cc2c(cn1)N(C)C(=O)c1ccccc1N2C [Compound 54]
10 |  |  |  | ≤ 35% | ≤ 35% | E (E is ≦35%) | CCOc1cc(C(=O)NCCN(C(C)C)C(C)C)ccc1Nc1cc2c(cn1)N(C)C(=O)c1ccccc1N2C [Compound 55]
11 |  |  |  | ≤ 35% | ≤ 35% | E (E is ≦35%) | CCOc1cc(C(=O)N2CC[C@@H](N3CCCCC3)C2)ccc1Nc1cc2c(cn1)N(C)C(=O)c1occc1N2C [Compound 56]
12 | ≤ 35% | ≤ 35% | E (E is ≦35%) |  |  |  | CCOc1cc(C(=O)NCC2CC2)ccc1Nc1cc2c(cn1)N(C)C(=O)c1ccccc1N2C [Compound 57]
13 | ≤ 35% | ≤ 35% | E (E is ≦35%) |  |  |  | CCOc1cc(C(=O)N2CCC(N3CCN(C)CC3)CC2)ccc1Nc1cc2c(cn1)N(C)C(=O)c1ccccc1N2C [Compound 61]
14 | ≤ 35% | ≤ 35% | E (E is ≦35%) |  |  |  | CCOc1cc(C(=O)N2CCNCC2)ccc1Nc1cc2c(cn1)N(C)C(=O)c1ccccc1N2C [Compound 62]
15 | ≤ 35% | ≤ 35% | E (E is ≦35%) |  |  |  | CCOc1cc(C(=O)N2CCC(OC)CC2)ccc1Nc1cc2c(cn1)N(C)C(=O)c1ccccc1N2C [Compound 63]
16 | ≤ 35% | ≤ 35% | E (E is ≦35%) |  |  |  | CN1C(=O)c2ccccc2N(C)c2cc(NC3CCC(C(=O)NC4CCOCC4)CC3)ncc21 (stereo not drawn) [Compound 64]
17 |  |  |  | ≤ 35% | ≤ 35% | E (E is ≦35%) | CCOc1cc(C(=O)N2CCC(N3CCN(C)CC3)CC2)ccc1Nc1cc2c(cn1)N(C)C(=O)c1occc1N2C [Compound 65]
18 | ≤ 35% | ≤ 35% | E (E is ≦35%) |  |  |  | CCOc1cc(C(=O)NCCO)ccc1Nc1cc2c(cn1)N(C)C(=O)c1ccccc1N2C [Compound 66]
19 |  |  |  | ≤ 35% | ≤ 35% | E (E is ≦35%) | CCOc1cc(C(=O)N2CC[C@@H](N(CC)CC)C2)ccc1Nc1cc2c(cn1)N(C)C(=O)c1occc1N2C [Compound 67]
20 | ≤ 35% | ≤ 35% | E (E is ≦35%) |  |  |  | CCOc1cc(C(=O)N[C@@H]2CCCOC2)ccc1Nc1cc2c(cn1)N(C)C(=O)c1ccccc1N2C [Compound 69]
21 |  |  |  | ≤ 35% | ≤ 35% | E (E is ≦35%) | COc1cc(C(=O)N2CCC(N(C)C)C2)ccc1Nc1cc2c(cn1)N(C)C(=O)c1ccccc1N2C (stereo not drawn) [Compound 70]
22 | ≤ 35% | ≤ 35% | E (E is ≦35%) |  |  |  | CCOc1cc(C(=O)N2CCCNCC2)ccc1Nc1cc2c(cn1)N(C)C(=O)c1ccccc1N2C [Compound 71]
23 |  |  |  | ≤ 35% | ≤ 35% | E (E is ≦35%) | CCOc1cc(C(=O)N2CCC(F)C2)ccc1Nc1cc2c(cn1)N(C)C(=O)c1occc1N2C (stereo not drawn) [Compound 72]
24 | ≤ 35% | ≤ 35% | E (E is ≦35%) |  |  |  | COc1cc(NS(C)(=O)=O)ccc1Nc1cc2c(cn1)N(C)C(=O)c1ccccc1N2C [Compound 73]
25 | ≤ 35% | ≤ 35% | E (E is ≦35%) |  |  |  | CN1C(=O)c2ccccc2N(C)c2cc(N[C@H]3CC[C@H](N4CCCC4)CC3)ncc21 [Compound 74]
26 | ≤ 35% | ≤ 35% | E (E is ≦35%) |  |  |  | CCOc1cc(C(=O)N2CC[C@H](N(C)C)C2)ccc1Nc1cc2c(cn1)N(C)C(=O)c1ccccc1N2C [Compound 75]
27 | ≤ 35% | ≤ 35% | E (E is ≦35%) |  |  |  | CCOc1cc(C(=O)NC2CCOCC2)ccc1Nc1cc2c(cn1)N(C)C(=O)c1ccccc1N2C [Compound 80]
28 |  |  |  | ≤ 35% | ≤ 35% | E (E is ≦35%) | CCOc1cc(C(=O)N2CCNC[C@H]2C)ccc1Nc1cc2c(cn1)N(C)C(=O)c1ccccc1N2C [Compound 82]
29 | ≤ 35% | ≤ 35% | E (E is ≦35%) |  |  |  | CCOc1cc(C(=O)NCCOC)ccc1Nc1cc2c(cn1)N(C)C(=O)c1ccccc1N2C [Compound 83]
